From patent US20120328549A1, “OIL COMPOSITIONS” (ANTERIOS, INC., priority 2011, published 2012)

Tested on: Axillary Sweating
Assay: Clinical study of axillary sweating by gravimetric sweat measurement, double-blind versus placebo (water)
Type: in vivo, human
Source text: The purpose of the study was to determine if Labrafac® Lipophile WL 1349 is biologically active in reducing sweating. […] Some subjects received treatment with the potentially biologically active substance and some subjects received treatment with a placebo, i.e. water. Neither the subject nor the investigator knew which treatment the subject was receiving.
Two weeks after a single treatment, subjects were re-assessed by gravimetric sweat measurement to determine the degree of sweat reduction. A comparison of post-treatment sweat production between the treatment groups was made to determine the degree of sweat reduction by the potentially biologically active substance.
• able to understand and give written informed consent • ages 18-70 years of age • diagnosis of moderate to severe primary axillary hyperhidrosis • Hyperhidrosis Disease Severity Scale score of >3 (the HDSS scale is described below) • >50 mg of sweat production/axilla in 5 minutes as measured gravimetrically • willingness to use only over-the-counter deodorants during the course of the study • willingness to shave underarms prior to each study visit • female subjects must have a negative urine pregnancy test and be non-lactating at the initial (“Baseline”) study site visit • patients should be in good general health as determined by the investigator and free of any disease that may interfere with study evaluations
The sweat production of the subject is measured gravimetrically by the following procedure: • The subject was placed in a room with relatively constant temperature and humidity for at least 30 min. • The subject was placed in a semi-reclining position with the axilla fully exposed and the arm resting comfortably above the head. • The subject's axilla was dried gently with a cotton gauze pad. • The investigator used a forceps to place one filter paper (90 mm diameter) on a balance sensitive to 0.1 mg and recorded its weight. • The investigator used a forceps to place the measured filter paper on the axilla, covered it with plastic and taped the edges of the bag against the subject's skin with hypoallergenic tape to form a seal around the plastic bag. • After 5 minutes, the investigator gently removed the tape and plastic from the subject's axilla and then, using forceps, immediately placed the filter paper onto the scale to record its weight. The scale was then dried and zero balanced. • This measurement was then repeated as described above with the other axilla.
If the subject was eligible for treatment on this basis, the subject was then treated. For treatment, one of the study preparations (0.3 mL/axilla) was applied topically with a gloved finger by the investigator to the subject's skin of the axilla. The preparation was administered in small increments to avoid run-off. The liquid was rubbed-in until vanished. […]
The subject was scheduled for a follow-up office visit two weeks after the treatment. At the follow-up office visit, the subject was questioned as to their compliance with the instructions regarding which medications not to use between treatment and the two week follow-up office visit. […] If the subject was compliant, the subject was re-assessed using the gravimetric sweat measurement procedure.
The study was conducted at multiple study sites and conducted in compliance with Good Clinical Practice standards. […] Two weeks after the treatment, each subject was re-assessed by gravimetric sweat measurement. […]

Q: For `CCCCCCCCCCCCCC(=O)OC(C)C` [Isopropyl Myristate], which “greater effectiveness in reducing sweat production than subjects treated with placebo” value (1.89 mg per axilla topical, based on share of subjects with at least 30% reduction) is on record?
A: Its value is 191%.

Q: What about the “conclusion on activity in reducing sweat production” value (1.89 mg per axilla topical, two weeks after treatment) of the same compound?
A: The value was “biologically active in reducing sweat production”.

Q: What about the “percent of subjects with at least a 30% reduction in sweat production compared to Baseline” value (1.89 mg per axilla topical, two weeks after treatment, control group 29%) of the same compound?
A: The value was 55%.

Q: And the “greater reduction in sweat production than the subjects in the control group” value (1.89 mg per axilla topical, two weeks after treatment, versus placebo (53 mg reduction))?
A: Its value is 195%.

Q: What about the “reduction in sweat production (average) as measured by gravimetric sweat measurement” value (subjects with primary axillary hyperhidrosis, single topical treatment, 1.89 mg per axilla, two weeks after treatment, 5 minute collection) of the same compound?
A: The value was 103 mg.
